The values below are quoted from earlier work in patent US20060052382A1, “3-Amino-4-phenylbutanoic acid derivatives as dipeptidyl peptidase inhibitors for the treatment or prevention of diabetes” (priority 2002, published 2006).

One data set relates to cardiac allograft. The following applies: rats; Transplantation, 63: 1495-1500 (1997).
Another data set relates to hematopoiesis. The following applies: mouse, cyclophosphamide-induced neutropenia; WO 99/56753.
In another data set the target is T1, DP-IV (Homo sapiens, UniProt P27487).
T1 construct: GRF is rapidly degraded in plasma to GRF[3-44]
The following applies: plasma.

T1 sequence (P27487 39-766 limits assumed): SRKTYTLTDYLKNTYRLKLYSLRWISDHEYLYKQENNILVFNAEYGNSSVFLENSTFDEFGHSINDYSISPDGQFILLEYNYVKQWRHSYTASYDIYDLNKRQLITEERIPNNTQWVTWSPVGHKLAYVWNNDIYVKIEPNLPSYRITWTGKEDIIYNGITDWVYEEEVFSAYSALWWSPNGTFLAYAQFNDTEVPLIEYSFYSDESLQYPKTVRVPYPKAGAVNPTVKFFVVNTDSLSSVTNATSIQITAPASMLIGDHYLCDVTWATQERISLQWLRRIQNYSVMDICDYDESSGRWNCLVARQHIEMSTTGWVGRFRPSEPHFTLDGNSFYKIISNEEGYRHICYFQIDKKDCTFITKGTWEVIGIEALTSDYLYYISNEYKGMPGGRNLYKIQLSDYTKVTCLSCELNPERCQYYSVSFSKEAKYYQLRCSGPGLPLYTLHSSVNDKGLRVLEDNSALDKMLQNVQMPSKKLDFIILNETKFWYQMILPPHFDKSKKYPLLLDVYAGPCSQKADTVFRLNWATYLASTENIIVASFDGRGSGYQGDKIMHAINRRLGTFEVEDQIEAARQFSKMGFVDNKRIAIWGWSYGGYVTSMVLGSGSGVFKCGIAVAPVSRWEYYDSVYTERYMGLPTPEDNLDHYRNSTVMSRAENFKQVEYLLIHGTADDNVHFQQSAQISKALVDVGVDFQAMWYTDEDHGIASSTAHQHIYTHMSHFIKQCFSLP

For the compound `CC(C)N1CCC(c2ccccc2)(c2ccccc2)CC1` [Prodipine, Pro-Pro-diphenyl-phosphonate], the cardiac allograft survival result with cardiac allograft is recorded as “double cardiac allograft survival in rats from day 7 to day 14”. With `CC(C)[C@H](N)C(=O)N1CCC[C@H]1B(O)O` [Val-Boro-Pro], the stimulation of hematopoiesis entry in the data set on hematopoiesis is listed as “stimulated hematopoiesis”. With diprotin A, the “prevention of GRF degradation to GRF[3-44]” value at DP-IV was “prevented”.
